We go through one compound from paper PMC3277400 (Nature Medicine, 2011).

For the test, the target named is TcdB (Clostridioides difficile, UniProt P18177). Type of test: biochemical.
TcdB, sequence (P18177 2-2366 limits assumed): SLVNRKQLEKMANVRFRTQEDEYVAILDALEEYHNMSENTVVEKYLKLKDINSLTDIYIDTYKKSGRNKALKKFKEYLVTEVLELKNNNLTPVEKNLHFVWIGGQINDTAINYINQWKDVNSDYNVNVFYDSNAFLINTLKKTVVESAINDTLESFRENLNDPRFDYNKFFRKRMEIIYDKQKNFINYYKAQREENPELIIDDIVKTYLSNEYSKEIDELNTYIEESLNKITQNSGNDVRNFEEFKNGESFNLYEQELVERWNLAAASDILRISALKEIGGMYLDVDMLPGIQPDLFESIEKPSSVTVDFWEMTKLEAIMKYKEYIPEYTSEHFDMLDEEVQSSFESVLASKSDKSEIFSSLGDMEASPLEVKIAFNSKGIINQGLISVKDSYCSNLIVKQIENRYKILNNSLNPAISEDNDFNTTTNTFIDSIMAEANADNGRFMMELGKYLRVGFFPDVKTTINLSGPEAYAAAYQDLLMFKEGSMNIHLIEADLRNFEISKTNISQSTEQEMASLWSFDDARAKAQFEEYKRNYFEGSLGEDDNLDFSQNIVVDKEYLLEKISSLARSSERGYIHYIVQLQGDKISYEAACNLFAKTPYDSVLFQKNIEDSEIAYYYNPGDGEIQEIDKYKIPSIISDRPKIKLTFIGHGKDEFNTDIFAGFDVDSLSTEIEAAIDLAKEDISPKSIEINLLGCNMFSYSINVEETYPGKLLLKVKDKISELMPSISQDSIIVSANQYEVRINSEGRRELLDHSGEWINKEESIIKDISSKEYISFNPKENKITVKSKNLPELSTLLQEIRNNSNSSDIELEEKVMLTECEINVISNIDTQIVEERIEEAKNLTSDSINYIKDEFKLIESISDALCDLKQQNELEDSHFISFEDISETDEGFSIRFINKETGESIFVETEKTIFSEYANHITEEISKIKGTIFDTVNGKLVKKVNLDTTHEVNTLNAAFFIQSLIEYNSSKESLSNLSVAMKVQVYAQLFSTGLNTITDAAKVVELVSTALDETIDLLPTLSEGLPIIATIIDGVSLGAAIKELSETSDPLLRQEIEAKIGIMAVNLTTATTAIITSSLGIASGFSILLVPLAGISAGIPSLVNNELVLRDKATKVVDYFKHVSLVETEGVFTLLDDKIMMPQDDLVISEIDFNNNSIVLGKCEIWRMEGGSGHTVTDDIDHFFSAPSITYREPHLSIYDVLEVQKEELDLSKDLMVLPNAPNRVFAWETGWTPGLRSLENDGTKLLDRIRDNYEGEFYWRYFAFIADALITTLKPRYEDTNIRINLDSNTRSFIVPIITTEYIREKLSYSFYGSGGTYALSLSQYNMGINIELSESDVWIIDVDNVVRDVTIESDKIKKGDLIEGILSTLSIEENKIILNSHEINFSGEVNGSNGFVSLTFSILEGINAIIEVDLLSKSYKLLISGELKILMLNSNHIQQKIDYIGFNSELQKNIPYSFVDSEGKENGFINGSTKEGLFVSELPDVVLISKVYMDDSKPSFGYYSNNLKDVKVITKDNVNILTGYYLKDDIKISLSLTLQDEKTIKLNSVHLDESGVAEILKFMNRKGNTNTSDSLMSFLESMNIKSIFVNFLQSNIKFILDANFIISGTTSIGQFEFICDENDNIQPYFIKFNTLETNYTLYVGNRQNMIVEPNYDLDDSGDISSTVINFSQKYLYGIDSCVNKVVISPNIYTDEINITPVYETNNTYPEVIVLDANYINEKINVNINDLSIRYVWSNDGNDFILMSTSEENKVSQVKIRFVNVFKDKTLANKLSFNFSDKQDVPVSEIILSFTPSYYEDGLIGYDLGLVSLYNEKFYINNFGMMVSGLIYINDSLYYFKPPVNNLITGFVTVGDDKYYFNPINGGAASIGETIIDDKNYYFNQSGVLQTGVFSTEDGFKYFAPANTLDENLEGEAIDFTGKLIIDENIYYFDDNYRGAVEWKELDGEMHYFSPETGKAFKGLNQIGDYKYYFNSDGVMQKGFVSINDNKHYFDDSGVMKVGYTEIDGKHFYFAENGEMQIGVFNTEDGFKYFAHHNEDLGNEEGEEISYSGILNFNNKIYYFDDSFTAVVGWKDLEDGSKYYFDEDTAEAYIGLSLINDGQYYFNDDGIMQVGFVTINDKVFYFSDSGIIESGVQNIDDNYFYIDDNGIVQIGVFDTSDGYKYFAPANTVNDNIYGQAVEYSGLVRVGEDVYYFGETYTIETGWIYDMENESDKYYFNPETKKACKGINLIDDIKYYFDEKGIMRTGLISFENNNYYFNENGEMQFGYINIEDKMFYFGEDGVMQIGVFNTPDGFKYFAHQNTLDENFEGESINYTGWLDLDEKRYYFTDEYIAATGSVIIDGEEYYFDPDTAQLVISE

For `O=P(O)(O)O[C@H]1[C@H](OP(=O)(O)O)[C@@H](OP(=O)(O)O)[C@H](OP(=O)(O)O)[C@@H](OP(=O)(O)O)[C@H]1OP(=O)(O)O` [InsP6], the “InsP6-induced autocleavage, gel and immunoblot” value is given as “Autocleavage of native TcdB versus E743A mutant with increasing InsP6 concentrations”.
